One compound from publication PMC3108484 (Frontiers in Pharmacology, 2011) can be followed below.

The target of one test is Human motilin (Homo sapiens, UniProt O43193). Nature of the test: Radioligand binding: Human motilin.
The target in the next test is Rat dopamine transporter (Rattus norvegicus, UniProt P23977). The experiment in a line: Radioligand binding: Rat dopamine transporter.
For another test, the target named is Human δ2 (Homo sapiens, UniProt P41143). Nature of the test: Radioligand binding: Human δ2 opiate receptor.
Sequence of Human δ2 (P41143 whole entry): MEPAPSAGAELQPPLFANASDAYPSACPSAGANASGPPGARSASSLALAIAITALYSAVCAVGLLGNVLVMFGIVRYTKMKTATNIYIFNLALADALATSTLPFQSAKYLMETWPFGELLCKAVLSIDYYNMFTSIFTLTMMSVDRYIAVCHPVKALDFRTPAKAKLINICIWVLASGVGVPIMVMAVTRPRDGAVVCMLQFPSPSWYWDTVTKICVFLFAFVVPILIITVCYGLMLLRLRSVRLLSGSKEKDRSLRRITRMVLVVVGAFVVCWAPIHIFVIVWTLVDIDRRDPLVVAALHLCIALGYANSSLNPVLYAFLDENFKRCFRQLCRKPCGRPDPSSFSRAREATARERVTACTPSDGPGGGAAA
Test [1] has as its target Rat Ca2+ channel (L, verapamil site). The experiment in a line: Radioligand binding: Rat Ca2+ channel. The settings on record: [3H]-(−)D 888 0.5 nM.
Another test addresses Human 5-HT2A (Homo sapiens, UniProt P28223). The experiment in a line: Radioligand binding: Human 5-HT2A.
The next test has as its target Human COX1 (Homo sapiens, UniProt P23219). Nature of the test: Enzyme inhibition: Human COX1.
The next test concerns the target Rat kainate. Nature of the test: Radioligand binding: Rat kainate. The following applies: [3H]-kainic acid 5 nM.
For another test, the target named is Rat PACAP (PAC1) (Rattus norvegicus, UniProt P32215). The experiment in a line: Radioligand binding: Rat PACAP.
Sequence of Rat PACAP (PAC1) (P32215 20-523): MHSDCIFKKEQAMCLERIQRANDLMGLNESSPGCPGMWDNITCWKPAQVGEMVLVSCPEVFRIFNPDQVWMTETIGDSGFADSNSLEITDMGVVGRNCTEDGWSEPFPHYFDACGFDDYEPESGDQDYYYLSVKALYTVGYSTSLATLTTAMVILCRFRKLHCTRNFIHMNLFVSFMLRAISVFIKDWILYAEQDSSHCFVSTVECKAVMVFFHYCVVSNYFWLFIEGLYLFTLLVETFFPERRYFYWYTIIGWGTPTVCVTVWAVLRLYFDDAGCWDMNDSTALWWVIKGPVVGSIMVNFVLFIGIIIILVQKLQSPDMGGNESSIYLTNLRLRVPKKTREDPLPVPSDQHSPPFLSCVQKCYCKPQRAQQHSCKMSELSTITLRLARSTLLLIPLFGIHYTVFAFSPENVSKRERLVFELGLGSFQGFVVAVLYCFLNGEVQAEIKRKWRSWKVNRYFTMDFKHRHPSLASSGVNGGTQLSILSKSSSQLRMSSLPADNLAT
The target in a further test is Human Y1 (Homo sapiens, UniProt P25929). The experiment in a line: Radioligand binding: Human Y1.
Sequence of Human Y1 (P25929 whole entry): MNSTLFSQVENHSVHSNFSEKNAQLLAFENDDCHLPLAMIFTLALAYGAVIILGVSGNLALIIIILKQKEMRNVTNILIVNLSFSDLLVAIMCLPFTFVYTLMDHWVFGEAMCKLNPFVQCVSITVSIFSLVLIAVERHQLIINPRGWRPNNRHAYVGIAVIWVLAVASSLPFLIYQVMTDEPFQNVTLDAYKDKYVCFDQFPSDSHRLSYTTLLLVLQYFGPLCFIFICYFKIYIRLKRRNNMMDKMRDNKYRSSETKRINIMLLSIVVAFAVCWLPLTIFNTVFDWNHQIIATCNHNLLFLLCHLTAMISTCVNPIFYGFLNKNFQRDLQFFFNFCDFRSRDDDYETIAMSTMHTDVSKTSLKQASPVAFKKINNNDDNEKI
The target in the next test is Human NK1 (Homo sapiens, UniProt P25103). The experiment in a line: Radioligand binding: Human NK1.
Sequence of Human NK1 (P25103 whole entry): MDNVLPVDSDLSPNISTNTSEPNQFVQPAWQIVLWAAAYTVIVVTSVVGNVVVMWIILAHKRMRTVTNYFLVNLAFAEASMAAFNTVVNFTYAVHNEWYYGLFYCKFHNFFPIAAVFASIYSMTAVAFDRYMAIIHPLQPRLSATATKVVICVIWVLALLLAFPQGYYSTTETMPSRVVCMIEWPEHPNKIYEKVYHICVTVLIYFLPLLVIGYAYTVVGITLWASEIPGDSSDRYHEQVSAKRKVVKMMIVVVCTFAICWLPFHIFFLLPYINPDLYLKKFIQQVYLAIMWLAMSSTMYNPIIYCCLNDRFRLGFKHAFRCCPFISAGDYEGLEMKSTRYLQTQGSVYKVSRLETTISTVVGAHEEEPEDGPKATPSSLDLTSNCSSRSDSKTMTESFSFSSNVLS
The target in the next test is Human β2 (Homo sapiens, UniProt P07550). Nature of the test: Radioligand binding: Human β2.
Sequence of Human β2 (P07550 whole entry): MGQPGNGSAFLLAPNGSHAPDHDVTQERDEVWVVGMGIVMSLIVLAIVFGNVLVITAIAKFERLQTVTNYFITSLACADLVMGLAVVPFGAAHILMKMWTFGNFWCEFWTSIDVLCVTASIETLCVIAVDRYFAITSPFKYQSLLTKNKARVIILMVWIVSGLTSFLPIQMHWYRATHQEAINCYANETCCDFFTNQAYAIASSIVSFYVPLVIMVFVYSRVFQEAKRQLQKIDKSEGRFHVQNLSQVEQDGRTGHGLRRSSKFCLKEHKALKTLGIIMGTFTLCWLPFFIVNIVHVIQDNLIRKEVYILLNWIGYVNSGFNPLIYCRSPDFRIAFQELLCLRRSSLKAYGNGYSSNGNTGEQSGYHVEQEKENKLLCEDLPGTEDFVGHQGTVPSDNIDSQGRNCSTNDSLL
The target of another test is Human V2 (Homo sapiens, UniProt P30518). The experiment in a line: Radioligand binding: Human V2.
A further test concerns the target Rat NMDA (Rattus norvegicus, UniProt Q00959). Nature of the test: Radioligand binding: Rat NMDA. The settings on record: read-out: % Inhibition of specific binding (1 μM).
The target in another test is Human 5-HT1A (Homo sapiens, UniProt P08908). Nature of the test: Radioligand binding: Human 5-HT1A.
Sequence of Human 5-HT1A (P08908 whole entry): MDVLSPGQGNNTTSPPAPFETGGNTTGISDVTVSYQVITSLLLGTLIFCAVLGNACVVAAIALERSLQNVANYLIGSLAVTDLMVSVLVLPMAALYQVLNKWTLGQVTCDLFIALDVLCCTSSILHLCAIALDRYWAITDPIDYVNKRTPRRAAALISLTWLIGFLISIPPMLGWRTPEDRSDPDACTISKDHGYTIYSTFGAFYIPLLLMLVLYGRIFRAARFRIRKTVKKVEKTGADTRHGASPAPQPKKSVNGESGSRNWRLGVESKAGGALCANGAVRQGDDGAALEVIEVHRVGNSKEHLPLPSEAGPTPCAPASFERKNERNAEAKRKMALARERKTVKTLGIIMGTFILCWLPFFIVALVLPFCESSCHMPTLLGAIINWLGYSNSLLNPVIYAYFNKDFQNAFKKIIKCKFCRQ
In the next test the target is 5-HT4 receptor (Cavia porcellus, UniProt O70528). Nature of the test: Guinea pig colonic longitudinal muscle/myenteric plexus. The following applies: isolated tissue, % of primed 5-HT (0.3 μM) maximum.
Sequence of 5-HT4 receptor (O70528 whole entry): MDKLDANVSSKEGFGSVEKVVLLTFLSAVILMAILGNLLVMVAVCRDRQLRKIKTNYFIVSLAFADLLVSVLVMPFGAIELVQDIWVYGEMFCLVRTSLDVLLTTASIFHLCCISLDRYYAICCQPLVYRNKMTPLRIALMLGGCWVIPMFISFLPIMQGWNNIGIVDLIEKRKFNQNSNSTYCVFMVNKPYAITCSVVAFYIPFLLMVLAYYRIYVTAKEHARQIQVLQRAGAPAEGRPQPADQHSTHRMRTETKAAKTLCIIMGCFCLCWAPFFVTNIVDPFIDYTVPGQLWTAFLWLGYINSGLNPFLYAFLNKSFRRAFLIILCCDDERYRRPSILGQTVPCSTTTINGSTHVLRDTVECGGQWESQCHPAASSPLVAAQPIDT
The next test concerns the target Human ETB (Homo sapiens, UniProt P24530). Nature of the test: Radioligand binding: Human ETB.
[2] abbreviates: read-out: % Inhibition of specific binding (1 μM).

Values joined by “and” are separate entries in the source; they are usually repeats but may differ in a detail not shown here. Identical values can stand only once.

Sequence of Human ETB (P24530 27-442): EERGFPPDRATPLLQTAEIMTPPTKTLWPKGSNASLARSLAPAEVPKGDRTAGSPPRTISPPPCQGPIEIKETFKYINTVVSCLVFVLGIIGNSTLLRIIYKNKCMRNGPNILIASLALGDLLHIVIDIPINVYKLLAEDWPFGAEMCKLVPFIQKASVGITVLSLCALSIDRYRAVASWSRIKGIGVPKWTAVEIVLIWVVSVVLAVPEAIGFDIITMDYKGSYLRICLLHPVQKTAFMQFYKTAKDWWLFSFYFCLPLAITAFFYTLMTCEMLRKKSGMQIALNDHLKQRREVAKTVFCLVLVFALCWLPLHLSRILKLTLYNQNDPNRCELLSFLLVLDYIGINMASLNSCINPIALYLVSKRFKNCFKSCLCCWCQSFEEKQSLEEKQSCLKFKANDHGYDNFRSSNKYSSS
Sequence of Rat dopamine transporter (P23977 whole entry): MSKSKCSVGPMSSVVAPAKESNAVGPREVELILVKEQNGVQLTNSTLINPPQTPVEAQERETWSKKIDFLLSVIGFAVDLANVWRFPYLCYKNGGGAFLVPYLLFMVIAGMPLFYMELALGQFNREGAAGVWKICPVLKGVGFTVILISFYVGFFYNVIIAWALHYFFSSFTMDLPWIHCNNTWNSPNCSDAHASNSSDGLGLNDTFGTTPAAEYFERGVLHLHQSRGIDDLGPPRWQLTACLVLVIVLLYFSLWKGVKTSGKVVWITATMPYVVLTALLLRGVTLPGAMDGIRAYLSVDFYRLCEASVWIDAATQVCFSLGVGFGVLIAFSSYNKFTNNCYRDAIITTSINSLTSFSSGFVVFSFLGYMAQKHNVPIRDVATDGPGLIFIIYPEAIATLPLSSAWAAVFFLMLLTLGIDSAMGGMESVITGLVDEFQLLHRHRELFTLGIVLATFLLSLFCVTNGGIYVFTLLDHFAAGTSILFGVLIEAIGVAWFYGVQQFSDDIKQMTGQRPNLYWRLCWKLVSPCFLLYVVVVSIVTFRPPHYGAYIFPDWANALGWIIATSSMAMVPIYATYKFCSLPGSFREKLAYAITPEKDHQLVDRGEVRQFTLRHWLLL
Sequence of Human COX1 (P23219 24-599): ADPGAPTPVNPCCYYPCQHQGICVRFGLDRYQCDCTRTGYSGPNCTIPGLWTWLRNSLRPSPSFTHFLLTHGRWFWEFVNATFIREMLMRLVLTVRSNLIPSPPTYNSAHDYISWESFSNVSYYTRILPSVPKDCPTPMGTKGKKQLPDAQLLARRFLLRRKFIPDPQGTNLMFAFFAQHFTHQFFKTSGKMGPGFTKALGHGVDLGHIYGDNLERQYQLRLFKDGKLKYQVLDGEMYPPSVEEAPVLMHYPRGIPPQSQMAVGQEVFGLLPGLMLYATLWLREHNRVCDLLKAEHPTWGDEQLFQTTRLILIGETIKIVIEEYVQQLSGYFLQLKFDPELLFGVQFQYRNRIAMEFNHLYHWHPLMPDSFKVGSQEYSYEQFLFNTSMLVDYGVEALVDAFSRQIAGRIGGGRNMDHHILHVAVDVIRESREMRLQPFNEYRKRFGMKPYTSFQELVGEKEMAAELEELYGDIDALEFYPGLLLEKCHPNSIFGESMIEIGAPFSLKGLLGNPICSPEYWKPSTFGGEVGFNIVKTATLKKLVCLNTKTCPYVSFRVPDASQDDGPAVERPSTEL
Sequence of Human 5-HT2A (P28223 whole entry): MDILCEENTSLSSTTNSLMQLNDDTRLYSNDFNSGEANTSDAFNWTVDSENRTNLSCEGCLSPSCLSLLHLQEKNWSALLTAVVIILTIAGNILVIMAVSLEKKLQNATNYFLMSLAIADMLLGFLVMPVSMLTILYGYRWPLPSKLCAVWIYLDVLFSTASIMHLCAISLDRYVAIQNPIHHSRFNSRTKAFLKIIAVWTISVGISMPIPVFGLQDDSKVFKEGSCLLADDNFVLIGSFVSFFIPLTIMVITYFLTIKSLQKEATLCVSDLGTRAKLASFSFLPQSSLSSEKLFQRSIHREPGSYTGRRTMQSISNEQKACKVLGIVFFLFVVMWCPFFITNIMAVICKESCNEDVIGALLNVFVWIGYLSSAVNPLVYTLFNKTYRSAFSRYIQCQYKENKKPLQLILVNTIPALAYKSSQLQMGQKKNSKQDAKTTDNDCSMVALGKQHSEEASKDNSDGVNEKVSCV

On to `COC(=O)N1CCC(CN2CCC(CNC(=O)c3cccc4[nH]c(C(C)C)nc34)CC2)CC1` [TD-8954, 4-(4-{[(2-isopropyl-1H-benzoimidazole-4-carbonyl)amino]methyl}-piperidin-1-ylmethyl)piperidine-1-carboxylic acid methyl ester], for which the Ki on Human motilin, on Rat dopamine transporter, on Human δ2, at Human 5-HT2A, on Rat PACAP (PAC1) and on Human Y1 was above 1 µM each time. Further, the Ki on Human NK1, at Human β2, on Human V2, at Human 5-HT1A and on Human ETB was above 1 µM in each case. Moreover, the inhibition – broadly, the relative decrease from the control value, in per cent – at 1 µM on Rat dopamine transporter (setting [2]) is 3%; on Human COX1 (read-out: % Inhibition of control (1 μM)), 2%; at Rat PACAP (PAC1) (setting [2]) it was -3%; on Human NK1 (setting [2]), -2%; on Rat NMDA, -6%; at Human ETB (setting [2]), 5%. The pKi (in test [1]; on Rat kainate) was below 6 throughout. Also, on Human COX1, the IC50 (commonly the concentration that inhibits the measured activity by half) was above 1 µM. For the same compound, the “% Inhibition of specific binding (1 μM)” value in the test with Rat kainate (TD-8954 1 μM) is recorded as −6%. On 5-HT4 receptor, the “Guinea pig colonic LMMP contractile activity IA (mean % 5-HT max ± SEM)” value is 55 % 5-HT max and 55 ± 2 % 5-HT max.
